We go through seven compounds from patent US20200385371A1 (Propellon Therapeutics Inc., priority 2017, published 2020).

SMILES strings stand for the structures.

Experiment [1] concerns MV4-11 cells. Description: Cell proliferation assay (ATPlite). Type of experiment: cell-based. As to conditions: Homo sapiens, 120 h; MV4-11 cells, five days; read-out: GI MV411 EC50. In outline: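 Cells seeded at 1,000/well in Alpha-MEM with 10% FBS, treated with compound over a 10-point range (top 10 μM) or DMSO. Grown five days at 37° C, 5% CO2; viability by ATPlite luminescence.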

For experiment [2], the target named is T1, WDR5 (Homo sapiens, UniProt P61964). Put plainly: Surface Plasmon Resonance (SPR) assay. Type of experiment: binding. Details: Full length WDR5 with an N-terminal His tag and C-terminal AviTag; His tag (N); made in house; host or cells: E. coli. The note with it: read-out: SPR Kd. In outline: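 Full-length biotinylated WDR5 (N-His, C-AviTag, E. coli) captured (~3000 RU) on streptavidin SA chip; Biacore T200. HBS-EP pH 7.4 plus 5% DMSO running buffer, 40 μl/min.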

Experiment [3] has as its target T1, WDR5. Description: Fluorescence Polarization (FP) binding assay. An outline of the steps: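 Displacement of fluorescein-labelled H3 (1-15) (30 nM, with 0.3 μM WDR5) or 9-Ala-FAM (20 nM, with 0.05 μM WDR5) in 80 mM sodium phosphate pH 6.5, 20 mM KCl, 0.008% Triton X-100. FP read at 485/528 nm (H3) or 480/540 nm (9-Ala-FAM); Kdisp from hyperbolic fit, mean of quadruplicates.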

Consider `C[C@@H]1CN(c2nccc(-c3c(F)cc(N4CCN(C)[C@@H](C)C4)c(NC(=O)c4c[nH]c(=O)cc4C(F)(F)F)c3F)n2)C[C@H](C)O1` [Example 58, N-(3-(2-((2S,6R)-2,6-dimethylmorpholino)pyrimidin-4-yl)-6-((S)-3,4-dimethylpiperazin-1-yl)-2,4-difluorophenyl)-6-oxo-4-(trifluoromethyl)-1,6-dihydropyridine-3-carboxamide], for which the half-maximal effective concentration (EC50) in experiment [1] was 99.1 nM. Also, in experiment [2], the equilibrium dissociation constant (Kd) was determined as 1.25 nM. Also, the IC50 in experiment [3] was determined as 15.1 nM.
The corresponding values for `C[C@@H]1CN(c2nccc(-c3c(F)cc(N4CCN(C)[C@@H](C)C4)c(NC(=O)c4c[nH]c(=O)cc4C(F)F)c3F)n2)C[C@H](C)O1` [Example 59, 4-(Difluoromethyl)-N-(3-(2-((2S,6R)-2,6-dimethylmorpholino)pyrimidin-4-yl)-6-((S)-3,4-dimethylpiperazin-1-yl)-2,4-difluorophenyl)-6-oxo-1,6-dihydropyridine-3-carboxamide] are 56.6 nM, 1.14 nM and 14.4 nM.
As for `C[C@H]1CN(c2ncc(-c3c(F)cc(N4CCN(C)[C@@H](C)C4)c(NC(=O)c4c[nH]c(=O)cc4C(F)(F)F)c3F)cn2)CCO1` [Example 60, N-(6-((S)-3,4-dimethylpiperazin-1-yl)-2,4-difluoro-3-(2-((S)-2-methylmorpholino)pyrimidin-5-yl)phenyl)-6-oxo-4-(trifluoromethyl)-1,6-dihydropyridine-3-carboxamide], the EC50 in experiment [1] was determined as 11.5 nM. In addition, in experiment [2], the Kd amounted to 1.26 nM. Besides, in experiment [3], the IC50 stood at 11 nM.
Take `C[C@@H]1CN(c2cc(F)c(-c3cnc(N4CCC(F)(F)CC4)nc3)c(F)c2NC(=O)c2c[nH]c(=O)cc2C(F)(F)F)C[C@H](C)N1C` [Example 61, N-(3-(2-(4,4-difluoropiperidin-1-yl)pyrimidin-5-yl)-2,4-difluoro-6-((3S,5R)-3,4,5-trimethylpiperazin-1-yl)phenyl)-6-oxo-4-(trifluoromethyl)-1,6-dihydropyridine-3-carboxamide]: the EC50 in experiment [1] is 22.9 nM. The Kd in experiment [2] amounted to 1.26 nM. Moreover, in experiment [3], the IC50 is 11.7 nM.
For `C[C@@H]1CN(c2ccc(-c3c(F)cc(N4C[C@@H](C)N(C)[C@@H](C)C4)c(NC(=O)c4c[nH]c(=O)cc4C(F)(F)F)c3F)cn2)C[C@H](C)O1` [Example 62, N-(3-(6-((2S,6R)-2,6-dimethylmorpholino)pyridin-3-yl)-2,4-difluoro-6-((3S,5R)-3,4,5-trimethylpiperazin-1-yl)phenyl)-6-oxo-4-(trifluoromethyl)-1,6-dihydropyridine-3-carboxamide], the EC50 in experiment [1] stood at 24.9 nM. Moreover, the Kd in experiment [2] was found to be 2.14 nM. Also, the IC50 in experiment [3] worked out at 14.4 nM.
For `C[C@@H]1CN(c2cc(F)c(-c3cnc(N(C)C)c(F)c3)c(F)c2NC(=O)c2c[nH]c(=O)cc2C(F)(F)F)C[C@H](C)N1C` [Example 63, N-(3-(6-(dimethylamino)-5-fluoropyridin-3-yl)-2,4-difluoro-6-((3S,5R)-3,4,5-trimethylpiperazin-1-yl)phenyl)-6-oxo-4-(trifluoromethyl)-1,6-dihydropyridine-3-carboxamide] the same measures were 61.8 nM, 1.81 nM and 13 nM.
For `C[C@@H]1CN(c2cc(F)c(-c3cnc(N4CCOCC4)c(C#N)c3)c(F)c2NC(=O)c2c[nH]c(=O)cc2C(F)(F)F)C[C@H](C)N1C` [Example 64, N-(3-(5-cyano-6-morpholinopyridin-3-yl)-2,4-difluoro-6-((3S,5R)-3,4,5-trimethylpiperazin-1-yl)phenyl)-6-oxo-4-(trifluoromethyl)-1,6-dihydropyridine-3-carboxamide] the same measures were 32.7 nM, 2.48 nM and 14.9 nM.
